Reference: publication PMC10139035, “Carborane-Containing Hydroxamate MMP Ligands for the Treatment of Tumors Using Boron Neutron Capture Therapy (BNCT): Efficacy without Tumor Cell Entry” (International Journal of Molecular Sciences, 2023)

Tests used:
MMP-9 = MMP-9 (Homo sapiens, UniProt P14780); assay: MMP-9 fluorometric inhibitor screening kit assay; settings: read-out: IC50 MMP-9; triplicate, S.D.
Procedure: (§1) MMP-2, MMP-9, and MMP-13 were assayed for inhibition using the respective abcam: ab139447, ab139449, and ab139451 Inhibitor Screening Kits. The supplied kits were adaptable to a microplate reader protocol designed for observing a fluorometric change associated with the cleavage of substrate analog at 37 °C. Briefly, each assay or control included a combined volume of 100 µL. […] The enzymes were then diluted in the assay buffer and 20 µL of each was added to give an assay concentrations of 0.042 nM (MMP-2), 1.9 nM (MMP-9), and 1.86 nM (MMP-13). […] The reaction was excited at 328 nm and emission detected at 420 nm. Fluorescence was measured every 60 s for a total of 960 s.
(§2) For each assay, data were truncated at 1000 s and offsets were applied to bring the initial fluorescence of each assay to zero. Replicate data for assays of individual inhibitor concentrations were plotted in KaleidaGraph (Synergy Software) for comparison and obvious outliers were culled from the analysis. The remaining data were averaged to yield one trace for each inhibitor concentration. The average data were combined into a dataset that included all assayed inhibitor concentrations for each MMP paralog. […]
(§3) The error was calculated by propagating the error for ratios of rate constants derived from fitting.

MMP-2 = target: T1, MMP-2 (Homo sapiens, UniProt P08253); assay: MMP-2 fluorometric inhibitor screening kit assay; settings: read-out: IC50 MMP-2; triplicate, S.D.
T1 sequence (P08253 110-660): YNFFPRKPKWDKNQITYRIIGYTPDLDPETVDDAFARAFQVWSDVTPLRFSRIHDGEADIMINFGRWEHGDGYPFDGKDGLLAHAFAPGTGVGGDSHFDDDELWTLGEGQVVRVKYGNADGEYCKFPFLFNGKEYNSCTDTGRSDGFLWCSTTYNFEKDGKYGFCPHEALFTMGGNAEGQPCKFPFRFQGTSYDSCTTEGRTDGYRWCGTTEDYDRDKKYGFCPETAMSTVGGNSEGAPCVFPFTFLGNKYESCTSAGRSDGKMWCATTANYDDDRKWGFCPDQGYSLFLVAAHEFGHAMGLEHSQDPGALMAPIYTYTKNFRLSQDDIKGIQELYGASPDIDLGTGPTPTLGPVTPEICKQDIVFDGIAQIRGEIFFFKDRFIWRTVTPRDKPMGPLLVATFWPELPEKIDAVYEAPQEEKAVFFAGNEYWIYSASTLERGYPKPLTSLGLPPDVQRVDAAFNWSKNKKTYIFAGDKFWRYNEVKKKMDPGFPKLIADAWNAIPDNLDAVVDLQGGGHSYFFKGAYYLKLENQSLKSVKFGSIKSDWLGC
Procedure: as §1, §2, §3

SCC VII tumor cells [1] = assay: Cytotoxicity: IC50, growth inhibition after 3 days of continuous exposure; format: cell-based; settings: 3 days continuous exposure, read-out: IC50 (cell toxicity)
Procedure: Suspensions of 105 SCC VII cells/200 μL MEM containing 10% FCS (fetal calf serum) were incubated for 3 days in 96-well microplate with various concentrations of 1 and 2 (B1 and B2). After 3 days of exposure, the cell were washed with PBS and fixed with 70% ethanol. The SCC VII cells were stained with 5% Giemsa solution for 15 min. After removing the solution, the cells were dried in air and Giemsa stained cells were uniformized by the addition of 100 μL of alcohol. The optical absorbance at 595 nm was measured by optical densitometer.

SCC VII tumor cells [2] = assay: In vitro BNCT survival study, colony formation assay; format: cell-based
Procedure: SCC VII tumor cells were incubated and stabilized in a logarithmic subconfluent growth phase at 36 °C in a 5% carbon dioxide atmosphere in a 10 cm diameter tissue culture dishes (100 mm tissue culture dishes; Corning Glass Works, Corning, NY, USA) containing Eagle’s MEM containing 10% heat-inactivated fetal bovine serum and 2 mM L-glutamine. The U87 delta EGFR glioma cell line, kindly provided by Dr. H. Michiue (Okayama University, Okayama, Japan), which stably expressed the constitutively active EGFRvIII, was used in the colony formation assay. […] The thermal neutron fluence was determined by averaging two gold foils symmetrically attached to the surface of the Teflon tube along the direction of the incidence of the thermal neutrons. The neutron absorbed dose (Gy) was calculated using the flux-to-dose conversion factor [61]. […] Ten days later, the colonies were fixed with 70% ethanol and stained with 5% Giemsa solution for quantitative visualization by the naked eye.

[3] = test system: U87 delta EGFR glioma cells; assay: as above; format: cell-based; settings: for Survival rate: 20 ppm of 10B in BPA; for Thermal neutron fluence yielding the D37 value: BPA 20 ppm 10B
Procedure: SCC VII tumor cells were incubated and stabilized in a logarithmic subconfluent growth phase at 36 °C in a 5% carbon dioxide atmosphere in a 10 cm diameter tissue culture dishes (100 mm tissue culture dishes; Corning Glass Works, Corning, NY, USA) containing Eagle’s MEM containing 10% heat-inactivated fetal bovine serum and 2 mM L-glutamine. The U87 delta EGFR glioma cell line, kindly provided by Dr. H. Michiue (Okayama University, Okayama, Japan), which stably expressed the constitutively active EGFRvIII, was used in the colony formation assay. The cells were maintained in Dulbecco’s modified Eagle’s medium (DMEM; FUJIFILM Wako Pure Chemical Corporation, Richmond, VA, USA with 10% fetal bovine serum (FBS), penicillin, and streptomycin at 37 °C in a humidified atmosphere containing 5% CO2. The stock solutions of B1 and B2 were obtained by dissolving 6 mg of them in 1 ml DMSO, respectively. For SCC VII cells, after adding 100 μL of a boron solution, the cells were incubated for boron loading into tumor cells for 5 h. […] The ^10B (0.143 ppm ^10B for 1 (B1) and 0.101 ppm for 2 (B2) in the medium was reconfirmed by PGS (prompt γ spectroscopy) in the SCC VII colony forming assay. After boron loading, the cells were trypsinized and washed three times by PBS, and 5 × 10^3 cells/mL MEM (FCS+) were irradiated with thermal neutrons in column-shaped Teflon tubes (1 × 3 cm). […] The irradiation times were 0, 15, 30 and 45 min. The thermal neutrons flux was 1.8 × 10^9 cm^−2·s^−1. The thermal neutron fluence was determined by averaging two gold foils symmetrically attached to the surface of the Teflon tube along the direction of the incidence of the thermal neutrons. The neutron absorbed dose (Gy) was calculated using the flux-to-dose conversion factor [61]. The chemical composition of the tumors was assumed to be 10.7% hydrogen, 12.1% carbon, 2% nitrogen, 71.4% oxygen, and 3.8% others. The γ-ray dose rate, including secondary γ-rays, was 1.0 × 10^−2 Gy·min^−1, according to a thermoluminescence dosimeter attached to the surface of a Teflon tube containing 1 mL MEM. After thermal neutron exposure, 300 or 900 cells were placed in three Corning 60 mm tissue culture dishes containing 6 mL MEM to examine colony formation. Ten days later, the colonies were fixed with 70% ethanol and stained with 5% Giemsa solution for quantitative visualization by the naked eye.

Sequence of MMP-9 (P14780 94-707): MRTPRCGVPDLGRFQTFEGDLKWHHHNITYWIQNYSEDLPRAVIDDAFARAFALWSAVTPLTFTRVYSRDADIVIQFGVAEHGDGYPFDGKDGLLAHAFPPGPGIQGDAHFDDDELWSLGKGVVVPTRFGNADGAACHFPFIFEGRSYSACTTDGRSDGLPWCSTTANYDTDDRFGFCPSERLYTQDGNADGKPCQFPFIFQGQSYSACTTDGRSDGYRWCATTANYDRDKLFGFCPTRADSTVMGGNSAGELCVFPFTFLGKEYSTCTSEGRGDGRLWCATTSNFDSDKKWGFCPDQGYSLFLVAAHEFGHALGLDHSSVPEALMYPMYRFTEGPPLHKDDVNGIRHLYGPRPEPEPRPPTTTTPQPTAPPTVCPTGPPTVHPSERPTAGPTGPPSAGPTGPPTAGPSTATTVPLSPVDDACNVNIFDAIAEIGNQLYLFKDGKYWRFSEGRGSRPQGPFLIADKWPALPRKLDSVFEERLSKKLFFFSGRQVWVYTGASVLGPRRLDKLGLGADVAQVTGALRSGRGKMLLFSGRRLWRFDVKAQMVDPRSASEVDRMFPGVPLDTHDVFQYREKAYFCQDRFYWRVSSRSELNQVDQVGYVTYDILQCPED

**Q.** How did the IC50 (MMP-9) turn out when `COc1ccc(S(=O)(=O)N(CC(=O)NO)CC(C)C)cc1` [NNGH, N-isobutyl-N-(4-methoxyphenylsulfonyl)glycyl hydroxamic acid, reference compound] was run?
**A.** Its IC50 is 0.0028 ± 1.4e-05 µM.

**Q.** And the IC50 (MMP-2)?
**A.** Its IC50 is 0.0085 ± 0.0011 µM.

**Q.** What does the source list for `N[C@@H](Cc1ccc(B(O)O)cc1)C(=O)O` [BPA, L-boronophenylalanine, reference compound]?
**A.** IC50 (SCC VII tumor cells [1]): 25500 µM; D37 absorbed dose (dose used to inhibit 63% colony formation) (SCC VII tumor cells [2]; SCC VII after in vitro BNCT, pre-incubation 0.143 ppm 10B (1), 0.101 ppm 10B (2)): 0.82 Gy; Thermal neutron fluence yielding the D37 value (SCC VII tumor cells [2]; SCC VII, BPA 20 ppm 10B, 4 0.48 ppm 10B (Figure 9)): 6.0 × 10^11; Survival rate ([3]; thermal neutron fluence 2.7 × 10^12 cm^−2): 6.2 ± 1.4%; Survival rate ([3]; thermal neutron fluence […] 10^12 cm^−2): 24.2 ± 7.7%; Thermal neutron fluence yielding the D37 value ([3]; U87 MG delta EGFR, 4 0.48 ppm 10B (Figure 8)): 1.2 × 10^12; Thermal neutron fluence yielding the D37 value ([3]; U87 delta EGFR, 2 (B2) 0.7 ppm 10B (Figure 7)): 1.0 × 10^12
